The source of these data is patent publication US11376580B2, “Methods and systems comprising modified pipettes for transferring and preserving biomaterial” (UNIVERSITY OF PITTSBURGH—OF THE COMMONWEALTH SYSTEM OF …, priority 2017, dated 2022).

Where two headings read alike, the source gives them in different places.

In data set [1] the test system is HEK293 cells.
Data set [2] deals with primary human hepatocytes.
Data set [3] deals with HEK293 cells. The source holds these as a separate data set.
Data set [4] can be described thus: in vitro. The note with it: human.
Data set [5] in a line: in vitro. The note with it: human. This is another data set of the same source.
Data set [6] is described as follows: in vitro. The note with it: human. This is another data set of the same source.
For data set [7], the system named is primary human hepatocytes. The settings on record: for Metabolite Generation (marker metabolite of the probe): 10 uM. The protocol:
Probe metabolism was tested as a fresh hepatocyte suspension culture, as a fresh agarose gelled BioActivator and after thawing a cryopreserved BioActivator. In all three testing conditions 50,000 viable hepatocytes were tested as following: (a) as a suspension in 500 μl of probe media, or, (b) in 50 μl of gelled agarose submerged in 450 μl of probe media. Cryopreserved BioActivators were thawed for testing after 48 hours at −80° C. Probe media was collected from the 3 test conditions at 30 minutes and 18 hours. Ice-cold acetonitrile containing 10 μM chlorzoxazone (internal extraction standard) was added at a 2:1 ratio to the collected media. The extraction mixture was analyzed by LC MS/MS.

Data set [8] has as its system Human primary hepatocytes. Format: in vitro ADME.
Setting [9] is: HEK293 Cytotoxicity LC50, HEK293 + BioActivator Pre-Conditioned Media.
The mark [10] stands for this setting: HEK293 Cytotoxicity LC50, HEK 293 + Cell Free Agarose Bead Pre-Conditioned Media.
Setting [11] is: HEK293 Cytotoxicity LC50, HEK293 + BioActivator.
Where [12] appears, read: HEK293 Cytotoxicity LC50, HEK 293 + cell free agarose beads.
Setting [13] is: HEK293 Cytotoxicity LC50, HEK293 + BioActivator Pre-Conditioned Media, compounds pre-conditioned 24 h in BioActivator, then 24 h on HEK293, Mean ± SD (N = 3).
Where [14] appears, read: HEK293 Cytotoxicity LC50, HEK293 + BioActivator, co-cultured 24 hours with BioActivators, Mean ± SD (N = 3), max 250 μM.
Where [15] appears, read: HEK293 Cytotoxicity LC50, HEK 293 + cell free agarose beads, co-cultured 24 hours with cell free agarose beads, Mean ± SD (N = 3), max 250 μM.

On to `Nc1ccc2ccccc2c1` [2-Napthylamine, 2-Napthylamine], for which, in the data set on HEK293 cells [1], the “HEK293 cytotoxicity co-cultured with BioActivator (in words)” value is reported as “No HEK293 cytotoxicity” and the “HEK293 cytotoxicity co-cultured with cell free agarose bead (in words)” value is listed as “No HEK293 cytotoxicity”. Also, the CC50 in data set [2] was > 250 µM.

Consider `O=[N+]([O-])c1ccc(O)cc1` [4-Nitrophenol, 4-Nitrophenol], for which, in the data set on HEK293 cells [3], the “HEK293 cytotoxicity of compounds pre-conditioned in the BioActivator (in words)” value is on record as “produce cytotoxicity”. For the same compound, the CC50 was 199 µM in “in vitro [4]” (setting [9]); > 250 µM in “in vitro [4]” (setting [10]); 101 µM in the data set “in vitro [5]” (setting [11]); > 250 µM in “in vitro [5]” (setting [12]); > 250 µM in “in vitro [6]”.

`Nc1cc2c3ccccc3ccc2c2ccccc12` [6-Aminochrysene]: the “HEK293 cytotoxicity of compounds pre-conditioned in the BioActivator (in words)” value in the data set on HEK293 cells [3] (compared to compounds pre-conditioned in cell free agarose beads) is reported as “produce cytotoxicity”. Also, the CC50 in the data set “in vitro [4]” (setting [13]) is 241 ± 9.8 µM; in “in vitro [5]” (setting [14]), 84 ± 2 µM; in “in vitro [5]” (setting [15]), > 250 µM; in “in vitro [6]”, > 250 µM.

`C=CC(N)=O` [Acrylamide]: the CC50 is > 250 µM in “in vitro [4]” (setting [9]); > 250 µM in the data set “in vitro [4]” (setting [10]); 167 ± 7.9 µM in the data set “in vitro [5]” (setting [11]); > 250 µM in “in vitro [5]” (setting [12]); > 250 µM in “in vitro [6]”.

In the case of `c1ccc2c(c1)cc1ccc3cccc4ccc2c1c34` [Benzo[a]pyrene], the CC50 in “in vitro [4]” (setting [13]), in “in vitro [5]” (setting [14]), in “in vitro [5]” (setting [15]) and in “in vitro [6]” was > 250 µM in each case. In addition, the “HEK293 cytotoxicity co-cultured with BioActivator (in words)” value in the data set on HEK293 cells [1] (24 h co-culture with BioActivator, up to 250 μM, compared to cell free agarose bead) is listed as “No HEK293 cytotoxicity”. In addition, the “HEK293 cytotoxicity co-cultured with cell free agarose bead (in words)” value in the data set on HEK293 cells [1] (24 h co-culture with cell free agarose bead, up to 250 μM) is given as “No HEK293 cytotoxicity”.

On to `O=P1(N(CCCl)CCCl)NCCCO1` (stereo not shown) [Cyclophosphamide], for which the CC50 in “in vitro [4]” (setting [9]), in “in vitro [4]” (setting [10]), in “in vitro [5]” (setting [11]), in “in vitro [5]” (setting [12]) and in the data set “in vitro [6]” was > 250 µM each time. The “HEK293 cytotoxicity co-cultured with BioActivator (in words)” value in the data set on HEK293 cells [1] (human) is listed as “No HEK293 cytotoxicity”. In addition, the “HEK293 cytotoxicity co-cultured with cell free agarose bead (in words)” value with HEK293 cells [1] (human) is listed as “No HEK293 cytotoxicity”.

Consider `O=C(O)Cc1ccccc1Nc1c(Cl)cccc1Cl` [Diclofenac], for which the “Effect of cryopreservation on hepatocyte clearance of probe (in words)” value in data set [7] is “minimal impact”. Moreover, in data set [7] (human, 30 min), the “Metabolite Generation (marker metabolite of the probe)” value was found to be 0.98 pmol/min/10^6 hepatocytes. In addition, in data set [8], the “Metabolite generation in slotted pipette tip compared with control hepatocyte suspension cultures (in words)” value is listed as “compare favorably”.

For `COc1cccc2c1C(=O)c1c(O)c3c(c(O)c1C2=O)C[C@@](O)(C(=O)CO)C[C@@H]3O[C@H]1C[C@H](N)[C@H](O)[C@H](C)O1` [Doxorubicin], the “HEK293 cytotoxicity of compounds pre-conditioned in the BioActivator (in words)” value in the data set on HEK293 cells [3] is recorded as “produce cytotoxicity”. Besides, the CC50 in the data set “in vitro [4]” (setting [13]) stood at 71 ± 2.7 µM; in “in vitro [5]” (setting [14]), 59 ± 5.1 µM; in the data set “in vitro [5]” (setting [15]), 108 ± 9.3 µM; in the data set “in vitro [6]”, 104 ± 4.6 µM. Further, the “HEK293 cytotoxicity co-cultured with BioActivator (in words)” value in the data set with HEK293 cells [1] (human) is reported as “measurable LC50 responses”. For the same compound, the “HEK293 cytotoxicity co-cultured with cell free agarose bead (in words)” value with HEK293 cells [1] (human) is recorded as “measurable LC50”. Also, the “Cytotoxicity in BioActivator hepatocytes at end of co-culture (in words)” value in data set [2] is reported as “cytotoxicity was evident”; in data set [2] (human), “LC50 responses”.

Regarding `CCOc1ccc(NC(C)=O)cc1` [Phenacetin], in data set [8], the “Metabolite generation in slotted pipette tip compared with control hepatocyte suspension cultures (in words)” value is given as “compare favorably”.

In the case of `O=C1OC(c2ccc(O)cc2)(c2ccc(O)cc2)c2ccccc21` [Phenolphthalein], the “Effect of cryopreservation on hepatocyte clearance of probe (in words)” value in data set [7] is reported as “minimal impact”. For the same compound, the “Metabolite Generation (marker metabolite of the probe)” value turned out to be 0.12 pmol/min/10^6 hepatocytes in data set [7] (30 min) and 0.02 pmol/min/10^6 hepatocytes in data set [7] (18 h). For the same compound, in data set [8], the “Metabolite generation in slotted pipette tip compared with control hepatocyte suspension cultures (in words)” value is given as “compare favorably”.

Take `O=c1ccc2ccccc2o1` [coumarin]: the “Metabolite generation in slotted pipette tip compared with control hepatocyte suspension cultures (in words)” value in data set [8] is “compare favorably”.

As to Aflatoxin B1, in the data set on HEK293 cells [1], the “HEK293 cytotoxicity co-cultured with BioActivator (in words)” value is “No HEK293 cytotoxicity” and the “HEK293 cytotoxicity co-cultured with cell free agarose bead (in words)” value is recorded as “No HEK293 cytotoxicity”.
